Values joined by “and” are separate entries in the source; they are usually repeats but may differ in a detail not shown here. Equal entries are not always repeated. Where two headings read alike, the source gives them in different places.
What was measured:
(α4)3(β2)2 nAChR [1] = target: T1, (α4)3(β2)2 nAChR (Homo sapiens, UniProt P17787+P43681); assay: Mechanistic (Monod-Wyman-Changeux two-state model) analysis of current responses, WT (α4)3(β2)2 nAChR; type: cell-based
T1 construct: expressed in transfected cells; host or cells: Xenopus laevis oocytes injected with cRNA, 8:1 α4:β2
Text: To gain mechanistic insight into receptor activation in the presence of CMPI, we analyzed the currents in the framework of a cyclic two-state (resting and active) allosteric activation model ([31], [32], [33]). In this model, channel opening is mediated by stabilization of the active state by an agonist that, by definition, has higher affinity to the active than resting state.
We commenced by converting the raw amplitudes of current responses to units of probability of being in the active state (PA units).
Further analysis of electrophysiological data was conducted in the framework of the two-state concerted transition model, adapted from the MWC cyclic model originally used to describe enzyme function ([31], [32], [33]). The raw peak amplitudes of current responses were converted to units of probability of being in the active state (PA).
The numbers of α4:β2 and α4:α4 binding sites (Nα4:β2 and Nα4:α4) were constrained to 2 and 1, respectively.
The concentration-response curve for TC-2559 was fitted to the following equation:(3) PA=1/1+L[1+[TC-2559]/KR,TC-2559,α4:β2/1+[TC-2559]/(KR,TC-2559,α4:β2cTC-2559,α4:β2)]^Nα4:β2
The concentration-response data were analyzed using Equation 3, with the value of L modified to reflect receptor activation by TC-2559, and the affinity and efficacy terms in the equation reflecting the values for CMPI. The number of binding sites for CMPI in Equation 3 was constrained to 1.
Curve fitting was done using Origin 2020 (OriginLab Corp). The results are reported as best-fit parameter ±SD of the fit. All data are included in the analysis.

(α4)3(β2)2 nAChR [2] = target: T1, (α4)3(β2)2 nAChR; details: cited from earlier work

T1 sequence (P43681 27-627): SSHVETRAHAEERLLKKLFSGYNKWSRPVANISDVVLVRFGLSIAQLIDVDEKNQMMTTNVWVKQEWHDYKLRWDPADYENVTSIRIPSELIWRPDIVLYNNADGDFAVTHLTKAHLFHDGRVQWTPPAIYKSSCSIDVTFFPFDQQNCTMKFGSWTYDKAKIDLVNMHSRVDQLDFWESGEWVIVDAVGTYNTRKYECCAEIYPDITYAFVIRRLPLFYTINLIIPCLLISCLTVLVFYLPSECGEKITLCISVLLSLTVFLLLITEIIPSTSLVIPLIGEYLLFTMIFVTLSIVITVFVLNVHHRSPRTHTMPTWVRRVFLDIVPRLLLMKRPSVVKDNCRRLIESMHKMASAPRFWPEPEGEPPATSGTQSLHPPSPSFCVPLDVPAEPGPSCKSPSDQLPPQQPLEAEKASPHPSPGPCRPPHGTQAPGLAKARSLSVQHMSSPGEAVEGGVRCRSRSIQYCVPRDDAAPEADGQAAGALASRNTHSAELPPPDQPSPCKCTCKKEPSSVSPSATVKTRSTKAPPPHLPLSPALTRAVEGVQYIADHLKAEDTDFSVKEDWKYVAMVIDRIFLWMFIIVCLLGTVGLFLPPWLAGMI
T1 sequence (P17787 26-502): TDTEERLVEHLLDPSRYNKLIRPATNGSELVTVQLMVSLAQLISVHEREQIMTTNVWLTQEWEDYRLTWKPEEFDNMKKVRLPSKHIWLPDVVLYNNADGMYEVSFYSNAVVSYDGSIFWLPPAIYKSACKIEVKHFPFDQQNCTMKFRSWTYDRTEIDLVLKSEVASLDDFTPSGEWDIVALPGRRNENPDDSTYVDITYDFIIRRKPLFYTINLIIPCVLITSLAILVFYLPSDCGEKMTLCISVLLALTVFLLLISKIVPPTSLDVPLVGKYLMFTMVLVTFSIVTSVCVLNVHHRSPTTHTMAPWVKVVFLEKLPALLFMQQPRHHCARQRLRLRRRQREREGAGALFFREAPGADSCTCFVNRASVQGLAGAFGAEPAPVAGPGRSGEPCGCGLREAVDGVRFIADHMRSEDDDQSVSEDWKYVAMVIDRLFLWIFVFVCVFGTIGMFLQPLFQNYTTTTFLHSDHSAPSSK

free energy change toward stabilization of the active state ((α4)3(β2)2 nAChR [1]; CMPI at the α4:α4 interface, from 1 μM TC-2559 background dataset): -1.42 kcal/mol
ΔGgating ((α4)3(β2)2 nAChR [1]; CMPI at the α4:α4 site, from mean parameters): -1.35 kcal/mol
cCMPI,α4:α4 ((α4)3(β2)2 nAChR [1]; background of 1 μM TC-2559): 0.090 ± 0.004
Kd ((α4)3(β2)2 nAChR [1]; background of 1 μM TC-2559, 0.01 to 3 μM CMPI, read-out: KR,CMPI,α4:α4): 170 ± 30 nM
cCMPI,α4:α4 ((α4)3(β2)2 nAChR [1]; background of 1 μM cytisine): 0.074 ± 0.009
Kd ((α4)3(β2)2 nAChR [1]; background of 1 μM cytisine, read-out: KR,CMPI,α4:α4): 430 ± 170 nM
cCMPI,α4:α4 ((α4)3(β2)2 nAChR [1]; background of 1 μM nicotine): 0.065 ± 0.007
Kd ((α4)3(β2)2 nAChR [1]; background of 1 μM nicotine, read-out: KR,CMPI,α4:α4): 400 ± 100 nM
cCMPI,α4:α4 ((α4)3(β2)2 nAChR [1]; background of 10 μM ACh): 0.145 ± 0.008
Kd ((α4)3(β2)2 nAChR [1]; background of 10 μM ACh, read-out: KR,CMPI,α4:α4): 290 ± 60 nM
cCMPI,α4:α4 ((α4)3(β2)2 nAChR [1]; background of 10 μM TC-2559): 0.129 ± 0.009
Kd ((α4)3(β2)2 nAChR [1]; background of 10 μM TC-2559, read-out: KR,CMPI,α4:α4): 90 ± 20 nM
Kd ((α4)3(β2)2 nAChR [1]; five approaches, read-out: KR,CMPI,α4:α4, range of estimates): 90 to 430 nM
mean cCMPI,α4:α4 ((α4)3(β2)2 nAChR [1]; mean of the five approaches): 0.101 ± 0.035 and 0.101
Kd ((α4)3(β2)2 nAChR [1]; mean of the five approaches, read-out: mean KR,CMPI,α4:α4): 280 ± 150 nM
Structure (SMILES): Cc1c(-c2cc(-c3ccccc3Cl)no2)cnn1C1CCNCC1 [CMPI, 3-(2-chlorophenyl)-5-(5-methyl-1-(piperidin-4-yl)-1H-pyrrazol-4-yl)isoxazole]
left-shift of the ACh concentration-response curve ((α4)3(β2)2 nAChR [2]; CMPI at 1 μM): ~100 fold
direct activation of the α4β2 receptor ((α4)3(β2)2 nAChR [2]): very weak direct activator
current responses to EC10 (10 μM) ACh with coapplied CMPI, % of control ((α4)3(β2)2 nAChR [2]; maximal potentiation, 10 μM ACh): 386 ± 15%
EC50 ((α4)3(β2)2 nAChR [2]; potentiation of 10 μM ACh response): 180 ± 30 nM
